Assays:
[1] = tested on: spinal cord injury (SCI) model mice; experiment: Evaluation of hindlimb motor function based on BMS and TMS; assay type: in vivo; settings: suspension in sesame oil, oral once a day, 0.1 μmol/kg·day, 14 days, vs sesame oil alone, FIGS. 4A and 4B
Protocol: Contusion injury was induced in 8-week-old female ddY mice (SLC) by the following procedure to give spinal cord injury (SCI) model mice. The ddY mice were maintained with free access to food and water in a controlled environment (22±2° C., 50±5% humidity, 12-h light/dark cycle starting at 7:00 am) Contusion injury was induced by exposing the lumbar vertebrae of each mouse in accordance with a conventional procedure, then placing the mouse in a stereotaxic apparatus (Narishige), and dropping a 6.5-g weight onto the first lumbar vertebrae (L1) from a height of 2 cm once. The mouse was then subjected to surgical procedures such as suture in a conventional manner. One hour after the induction of the contusion injury, the mice were randomly selected and divided into test groups and were subjected to the administration test described later in Example 10 and Comparative Example 5.
The locomotion behavior in the open field was evaluated using the Basso Mouse Scale (BMS) (see, for example, Engesser-Cesar C, Anderson A J, Basso D M et al., (2005), Voluntary wheel running improves recovery from a moderate spinal cord injury, J Neurotrauma 22: 157-171), which was a general standard for the evaluation of the hindlimb motor function of spinal cord injury model mice, and a 0-30-point Toyama Mouse Scale (TMS), which was a modified BMS established by the inventors for better test accuracy. […]

[2] = tested on: normal mice (ddY); experiment: Object recognition memory test in normal mice; assay type: in vivo; settings: Example 12: suspension in sesame oil, oral, 0.1 μmol/kg·day, 4 days; ddY male and female 9 weeks; interval 48 hours; FIG. 10
Protocol: […] All mice were housed with free access to food and water and were kept in a controlled environment at 22±2° C., 50±5% humidity, and 12-h light/dark cycle starting at 7:00 am.
The next day of the measurement of spontaneous motor activity, an object recognition memory test was performed as described in Joyashiki, E. et al., Int J Neurosci, 121, 181-190, 2011 and Tohda, C. et al., Int J Neurosci, 121, 641-648, 2011, reported by the inventors and others. Testing was carried out in a dimly illuminated room (about 100 lx). An appropriate time interval between a training session and a test session was set based on the results of a preliminary test using another group of mice. The object recognition memory test utilizes animals' habit of showing interest in a novel object. The inner walls of the open-field box for the test had no marks. In the training session, two identical objects were placed in the field, and mice were allowed to explore freely for 10 minutes. In the test session, the location of the objects was not changed, but one of the objects was replaced with a novel object, and the mice were allowed to explore freely for 10 minutes. […] In the Examples below, the ratio (%) of the number of times a mouse explored the novel object to the total exploration time was calculated as a preference index. […]

[3] = tested on: normal mice (ddY); experiment: Object location memory test in normal mice (Reference Test 2); assay type: in vivo; settings: 10 μmol/kg·day, 5 days, ddY male 6 weeks, interval 48 hours
Protocol: ddY Mice were obtained from Japan SLC (Hamamatsu, Japan) In the Examples below, 6-week-old male ddY mice were used as normal mice. All mice were housed with free access to food and water and were kept in a controlled environment at 22±2° C., 50±5% humidity, and 12-h light/dark cycle starting at 7:00 am.
Testing was carried out in a dimly illuminated room (about 100 lx). An appropriate time interval between a training session and a test session was set based on the results of a preliminary test using another group of mice. The object location memory test utilizes animals' habit of showing interest in a novel object. The two opposite walls of a four-walled open-field box for the test had wall coverings with a distinct pattern. […] In the test session, one of the objects was moved to a different location, and the mice were allowed to explore freely for 10 minutes. The increase of the number of times a mouse preferentially explored the identical but relocated object was used as an index of the location memory. That is, the test session determines whether a mouse remembers the previous exposure to an object in the training session. In the Examples below, the ratio (%) of the number of times a mouse explored the object after relocation to the total exploration time was calculated as a preference index. […]

[4] = tested on: normal or AD model mice; settings: intraperitoneal administration; cited from earlier work

SMILES	hindlimb motor function (BMS and TMS scores) [1]	object recognition memory [2]	memory enhancing effect, object location memory test ([3]; Reference Example 1: dissolved in aqueous solvent (ethanol/5% glucose), oral, FIG. 6A)	memory enhancing effect, object location memory test ([3]; Reference Example 2: dissolved in aqueous solvent, intraperitoneal, FIG. 6B)	memory [4]
C[C@@H]1CC[C@@]2(OC1)O[C@H]1C[C@H]3[C@@H]4CC=C5C[C@@H](F)CC[C@]5(C)[C@H]4CC[C@]3(C)[C@H]1[C@@H]2C [Dios-F, (3β,25R)-3-fluorospirost-5-ene]	significantly improved	–	–	–	–
C[C@@H]1CC[C@@]2(OC1)O[C@H]1C[C@H]3[C@@H]4CC=C5C[C@@H](O)CC[C@]5(C)[C@H]4CC[C@]3(C)[C@H]1[C@@H]2C [diosgenin, Diosgenin]	–	a significant enhancement of the object recognition memory	no memory enhancing effect	a significant memory enhancing effect	enhanced the memory

— US20170129915A1, “THERAPEUTIC AGENT FOR DISEASES ASSOCIATED WITH NERVE AXON DYSFUNCTION, INCLUDING THERAPEUTIC AGENT FOR ALZHEIMER'S DISEASE” (Resilio Company Limited, priority 2014, published 2017)
